For the assay, the system named is nude mice, LOX melanoma ip, survival T/C. As to the kind of experiment: NCI In Vivo Anticancer Drug Screen. Data for tumor model Human Amelanotic Melanoma (LOX) (intraperitoneal) in NU/NU BALB/C (nude) mice. As to conditions: endpoint: median survival time, higher = longer survival. As to the method:
The antitumor activity of compounds was measured in mice bearing transplantable tumors. Survival or tumor size were measured and the results are expressed as the measurement made in the treated group (T) divided by the measurement made in the vehicle treated control group (C). The tumor model used in this assay is Human Amelanotic Melanoma (LOX) (intraperitoneal) in NU/NU BALB/C (nude) mice

The mark [1] stands for this setting: dose: 50.0 mg/kg/injection, schedule: Q04DX003 (ip), vehicle: water.
[2] abbreviates: dose: 100.0 mg/kg/injection, schedule: Q04DX003 (ip), vehicle: water.
The mark [3] stands for this setting: dose: 75.0 mg/kg/injection, schedule: Q04DX003 (ip), vehicle: saline.
The mark [4] stands for this setting: dose: 150.0 mg/kg/injection, schedule: Q04DX003 (ip), vehicle: saline.
Setting [5] is: dose: 300.0 mg/kg/injection, schedule: Q04DX003 (ip), vehicle: saline.

“And” between values parts separate entries of the source, which are not always exact repeats. Identical values can stand only once. Inconclusive results and toxic doses are left out.

Our source for the T/C values is PubChem BioAssay AID280 (DTP/NCI, 2004).

On to `O=NNc1cnccn1`, for which the T/C was 110 % of control (dose: 11.3 mg/kg/injection, schedule: Q01DX009 (ip), vehicle: other); 117 % of control (dose: 11.3 mg/kg/injection, schedule: Q03HX008 (ip), vehicle: other); 110 % of control (dose: 12.5 mg/kg/injection, schedule: Q04DX003 (ip), vehicle: water); 97 % of control (dose: 16.9 mg/kg/injection, schedule: Q01DX005 (iv), vehicle: other); 153 % of control (dose: 16.9 mg/kg/injection, schedule: Q01DX009 (ip), vehicle: other); 175 % of control (dose: 25.3 mg/kg/injection, schedule: Q01DX009 (ip), vehicle: other). In addition, the T/C by setting is: (dose: 25.3 mg/kg/injection, schedule: Q03HX008 (ip), vehicle: other) 159 % of control; (dose: 29.7 mg/kg/injection, schedule: Q04DX003 (ip), vehicle: water) 201 % of control; (dose: 38.0 mg/kg/injection, schedule: Q01DX005 (iv), vehicle: other) 153 % of control; (dose: 38.0 mg/kg/injection, schedule: Q01DX009 (ip), vehicle: other) 189 % of control; (dose: 38.0 mg/kg/injection, schedule: Q04DX003 (iv), vehicle: other) 123 % of control; (dose: 44.5 mg/kg/injection, schedule: Q04DX003 (ip), vehicle: water) 180 % of control and 189 % of control. For the same compound, the T/C is, setting by setting: under setting [1], 156 % of control; (dose: 57.0 mg/kg/injection, schedule: Q01DX001 (ip), vehicle: other) 116 % of control; (dose: 57.0 mg/kg/injection, schedule: Q01DX001 (iv), vehicle: other) 115 % of control; (dose: 57.0 mg/kg/injection, schedule: Q01DX005 (iv), vehicle: other) 191 % of control; (dose: 57.0 mg/kg/injection, schedule: Q01DX009 (ip), vehicle: other) 220 % of control; (dose: 57.0 mg/kg/injection, schedule: Q04DX003 (ip), vehicle: other) 170 % of control. For the same compound, the T/C (dose: 57.0 mg/kg/injection, schedule: Q04DX003 (iv), vehicle: other) was 154 % of control; the T/C (dose: 66.7 mg/kg/injection, schedule: Q04DX003 (ip), vehicle: water) is 200 % of control and 221 % of control; the T/C (dose: 85.4 mg/kg/injection, schedule: Q01DX001 (iv), vehicle: other) is 120 % of control; the T/C (dose: 85.4 mg/kg/injection, schedule: Q04DX003 (ip), vehicle: other) was 185 % of control; the T/C (dose: 85.4 mg/kg/injection, schedule: Q04DX003 (iv), vehicle: other) is 159 % of control; the T/C (dose: 85.4 mg/kg/injection, schedule: Q08DX002 (ip), vehicle: other) was 150 % of control. The T/C reads like this: under setting [2], 232 % of control and 250 % of control and 301 % of control; (dose: 128.0 mg/kg/injection, schedule: Q01DX001 (ip), vehicle: other) 170 % of control; (dose: 128.0 mg/kg/injection, schedule: Q04DX003 (ip), vehicle: other) 170 % of control; (dose: 128.0 mg/kg/injection, schedule: Q04DX003 (iv), vehicle: other) 91 % of control; (dose: 128.0 mg/kg/injection, schedule: Q08DX002 (ip), vehicle: other) 180 % of control; (dose: 150.0 mg/kg/injection, schedule: Q04DX003 (ip), vehicle: water) 248 % of control and 296 % of control. Besides, the T/C (dose: 192.0 mg/kg/injection, schedule: Q01DX001 (ip), vehicle: other) was 180 % of control; the T/C (dose: 192.0 mg/kg/injection, schedule: Q08DX002 (ip), vehicle: other) was 300 % of control; the T/C (dose: 200.0 mg/kg/injection, schedule: Q04DX003 (ip), vehicle: water) is 121 % of control.

`Cc1c(O)/c(=C\O)c2nc3c(=O)ccc(C(=O)NCCN(C)C)c3[nH]c2c1=O`: the T/C runs as follows: (dose: 25.0 mg/kg/injection, schedule: Q04DX003 (ip), vehicle: water) 95 % of control and 97 % of control; under setting [1], 104 % of control and 98 % of control; (dose: 86.4 mg/kg/injection, schedule: Q04DX003 (ip), vehicle: water) 95 % of control; under setting [2], 101 % of control and 104 % of control; (dose: 144.0 mg/kg/injection, schedule: Q04DX003 (ip), vehicle: water) 99 % of control.

On to `CCCCCCCC(=O)O[C@H]1[C@H]2[C@@H](CC1(C)C)C(=O)[C@]13O[C@H]1C(=O)[C@]1(CO1)[C@]23C`, for which the T/C is 115 % of control (dose: 2.5 mg/kg/injection, schedule: Q04DX003 (ip), vehicle: saline with Tween-80); 92 % of control (dose: 5.0 mg/kg/injection, schedule: Q04DX003 (ip), vehicle: saline with Tween-80); 90 % of control (dose: 10.0 mg/kg/injection, schedule: Q04DX003 (ip), vehicle: saline with Tween-80); 103 % of control (dose: 20.0 mg/kg/injection, schedule: Q04DX003 (ip), vehicle: saline with Tween-80); 92 % of control (dose: 40.0 mg/kg/injection, schedule: Q04DX003 (ip), vehicle: saline with Tween-80).

For `OCC(O)C(O)C(O)C(O)CO` (centres undefined), the T/C is 97 % of control under setting [3]; 102 % of control under setting [4]; 97 % of control under setting [5]; 106 % of control (dose: 600.0 mg/kg/injection, schedule: Q04DX003 (ip), vehicle: saline); 104 % of control (dose: 1200.0 mg/kg/injection, schedule: Q04DX003 (ip), vehicle: saline).

On to `O=C(Nc1cccc(O)c1)C(Cl)=C(Cl)Cl`, for which the T/C is 96 % of control (dose: 6.25 mg/kg/injection, schedule: Q04DX003 (ip), vehicle: DMSO); 91 % of control (dose: 12.5 mg/kg/injection, schedule: Q04DX003 (ip), vehicle: DMSO); 95 % of control (dose: 25.0 mg/kg/injection, schedule: Q04DX003 (ip), vehicle: DMSO); 94 % of control (dose: 50.0 mg/kg/injection, schedule: Q04DX003 (ip), vehicle: DMSO).

With `CC(O)CCC(=O)c1ccoc1` (centres undefined), the T/C is, setting by setting: (dose: 10.8 mg/kg/injection, schedule: Q01DX001 (ip), vehicle: propolene glycol) 103 % of control and 118 % of control and 119 % of control; (dose: 30.0 mg/kg/injection, schedule: Q01DX001 (ip), vehicle: propolene glycol) 117 % of control.

On to `CN(C)CCC(=O)C(=Cc1ccc(O)cc1)C(=O)CCN(C)C`, for which the T/C by setting is: (dose: 18.75 mg/kg/injection, schedule: Q04DX003 (ip), vehicle: saline) 100 % of control; (dose: 37.5 mg/kg/injection, schedule: Q04DX003 (ip), vehicle: saline) 101 % of control; under setting [3], 112 % of control; under setting [4], 107 % of control; under setting [5], 103 % of control.

With `CCCCCCSc1nc(COC(=O)NC)c(COC(=O)NC)n1C`, the T/C reads like this: (dose: 16.85 mg/kg/injection, schedule: Q04DX003 (ip), vehicle: saline) 102 % of control; (dose: 33.7 mg/kg/injection, schedule: Q04DX003 (ip), vehicle: saline) 90 % of control; (dose: 67.5 mg/kg/injection, schedule: Q04DX003 (ip), vehicle: saline) 93 % of control; (dose: 135.0 mg/kg/injection, schedule: Q04DX003 (ip), vehicle: saline) 107 % of control; (dose: 270.0 mg/kg/injection, schedule: Q04DX003 (ip), vehicle: saline) 123 % of control.

With `CN(C)N=Nc1ccc(C(N)=O)cc1`, the T/C is, setting by setting: (dose: 22.5 mg/kg/injection, schedule: Q04DX003 (ip), vehicle: saline with Tween-80) 99 % of control; (dose: 45.0 mg/kg/injection, schedule: Q04DX003 (ip), vehicle: saline with Tween-80) 120 % of control; (dose: 180.0 mg/kg/injection, schedule: Q04DX003 (ip), vehicle: saline with Tween-80) 153 % of control; (dose: 360.0 mg/kg/injection, schedule: Q04DX003 (ip), vehicle: saline with Tween-80) 210 % of control.

On to `COc1cc2c(c(OC)c1OC)-c1ccc(OC)c(=O)cc1[C@@H](N)CC2`, for which the T/C was 102 % of control (dose: 3.75 mg/kg/injection, schedule: Q04DX003 (ip), vehicle: Klucel (hydroxypropylcellulose) (HPC)); 104 % of control (dose: 7.5 mg/kg/injection, schedule: Q04DX003 (ip), vehicle: Klucel (hydroxypropylcellulose) (HPC)); 108 % of control and 113 % of control and 116 % of control (dose: 15.0 mg/kg/injection, schedule: Q04DX003 (ip), vehicle: Klucel (hydroxypropylcellulose) (HPC)); 113 % of control and 114 % of control and 115 % of control (dose: 30.0 mg/kg/injection, schedule: Q04DX003 (ip), vehicle: Klucel (hydroxypropylcellulose) (HPC)); 114 % of control (dose: 60.0 mg/kg/injection, schedule: Q04DX003 (ip), vehicle: Klucel (hydroxypropylcellulose) (HPC)); 163 % of control (dose: 120.0 mg/kg/injection, schedule: Q04DX003 (ip), vehicle: Klucel (hydroxypropylcellulose) (HPC)).
